Experimental data: publication PMC7263498 (bioRxiv, 2020)

Target: M^Pro (SARS-CoV-2 main protease) (Severe acute respiratory syndrome coronavirus 2, UniProt P0DTD1)
Assay: FRET peptide
Format: biochemical

`CN1CCN(CC(=O)N2c3ccccc3C(=O)Nc3cccnc32)CC1` [Pirenzepine] was tested, and the “% activation at 1 mM” value was > 15%.
